In patent publication US4879277A, “Antiviral compositions and methods” (The United States of America as represented by the …, priority 1987, dated 1989):
“Also recorded” adds a separate entry of the source.

Columns and labels:
cytidine deaminase = experiment: Sensitivity to cytidine deaminase; type: in vitro ADME
T cells = experiment: Safety to T cells (studies of anabolic phosphorylation on human cells); type: cell-based; conditions: comparable dosages
[1] = Toxicity observed in humans likely due to ddC administration; type: in vivo, human
Description: Toxicity toward humans has been shown by the observation residing in Table II.
Toxicity Observed Which is
Likely to be Due to ddC Administration

T4 cells [2] = experiment: T4 cell number and T4/T8 ratio in AIDS patients receiving ddC; type: in vivo, human; conditions: patient 2, 0.03 mg/kg every 8 hours, IV then oral, 19 days receiving ddC
normal lymphocytes = tested on: normal lymphocytes
Procedure: (§1) 5×10^4 normal helper/inducer TM3 cells were stimulated with tetanus toxoid (0.6 limiting flocculation units/ml) plus 10^5 irradiated (4,000 rad) autologous peripheral blood mononuclear cells (PBM) as a source of accessory cells, and were cultured for 72 hours in the presence or absence of ddC. After exposure to uCi ^3 H-uridine for the final 5 hours, cells were harvested onto glass fibers and the incorporated radioactivity was counted. Data are expressed as the arithmetic mean counts per minute (×10^3)±1 standard deviation triplicate determinations. 10^6 PBM from a healthy individual were stimulated with phytohaemagglutinin (PHA) or pokeweek mitogen (PWM) and cultured for 72 hours, and treated as described above. ^3 H-uridine incorporation was used as an indicator of activiation of the responder cells.

T4 cells [3] = experiment: T4 cell number and T4/T8 ratio in AIDS patients receiving ddC; type: in vivo, human; conditions: for T4/T8 Ratio, Start Treatment / T4/mm3, Start Treatment: start of treatment
Description: (§2) The efficacy of the application of 2',3'-dideoxycytidine in human use is shown graphically in Table I, where the absolute number of T4 cells and the T4/T8 ratio both show an increase in the T cells, indicating improvements of the immune system in patients with AIDS and its related conditions following therapy. […] It has also been shown that the circulating p24 antigen-level (a measure of viral replication in a patient's body) falls, following treatment with these compositions.
*Patients 1 and 2 received one dose of ddC every 8 hours, and patient 3
received one dose every 4 hours. Patient 1 received intravenous (IV)
dosing throughout; patient 2 received IV dosing for 21 days, followed by
oral dosing; patient 3 received IV dosing throughout. IV dosing was given
as 1 hour infusions. For oral dosing, the ddC was administered dissolved
in 0.1 ml of 0.9% sodium chloride solution and approximately 100 ml of
orange juice. Each patient received a 1 hour intravenous infusion (test
dose) of ddC two days prior to the initiating of dosing.

[4] = tested on: Human T4^+ T lymphocytes (ATH8 cell line); experiment: Anabolism of ddCyd by human T4+ T lymphocytes (intracellular concentration); type: in vitro ADME; conditions: ATH8 cells exposed to 1 uM ddCyd for 24 hours
Procedure: * After incubation with ^3 Hlabelled 2',3dideoxycytidine (ddCyd) (1
exchange HPLC using radial compression columns of PartisilSAX equilibrate
phosphate, pH 3.8. ddCMP, 2',3dideoxycytidine-5monophosphate; ddCDP,

HIV p24 antigen = experiment: Circulating HIV p24 antigen level in patients; type: in vivo, human immunodeficiency virus; conditions: following treatment
Description: as §2
levels in the blood after one to two weeks of treatment.

Clone TM 3 = experiment: In vitro immune reactivity of normal helper/inducer TM3 cells (3H-uridine incorporation); type: cell-based, human; conditions: 72 hours, tetanus toxoid, control (None) 12 ± 1
HIV [5] = experiment: In vitro inhibition of infectivity and replication of HIV (p24 gag expression in H9 cells); type: cell-based
Procedure: The in vitro inhibition of the infectivity and replication of the HIV virus by ddC was also tested. The results are shown in FIG. 4-B. In this test, 10^5 H9 cells were exposed to various concentrations of ddC for 4 hours, then to 2 ug/ml polybrene for 30 minutes, pelleted, and then exposed to HIV (3,000 virus particles/cell) for 1.5 hours. Cells were resuspended in fresh complete medium and cultured in tubes at 37° C. in 5% CO2 -containing humidified air, and under conditions in which the cells were continuously exposed to ddC. On days 8 (left), 9 (middle), and 10 (right) in culture, the percentage of the target H9 cells expressing p24 gag protein of HIV was determined by indirect immunofluorescence microscopy by using anti-HIV p24 murine monocolonal antibody.

PBM + PWM = experiment: In vitro immune reactivity of PBM stimulated with PWM (3H-uridine incorporation); type: cell-based, human; conditions: 72 hours, control (None) 24 ± 1
Procedure: as §1

HIV-infected ATH8 cells = tested on: HIV-infected ATH8 cells
Procedure: (§3) Of critical importance to the biological activation of the 2',3'-dideoxycytidine analogues inside human cells, both as antiviral and as antitumor agents, is their anabolic conversion to nucleotides inside cells. This cannot be assumed to occur because not all nucleoside analgoues can be adequately phosphorylated. The ability of HIV-infected human T-lymphoblasts to phosphorylate 2',3'-dideoxycytidine nucleoside (ddCyd) was tested. […] The incubation was terminated after 24 hours of drug exposure, and the TCA-soluble fraction of the cell lysate was resolved on HPLC, utilizing a radial compression column of Partisil-10 SAX with a gradient of ammonium phosphate.

HIV [6] = experiment: In vitro inhibition of the cytopathic effect of HIV in ATH8 cells; type: cell-based, human immunodeficiency virus
Description: ATH8 cells (2×10^5) were pre-exposed to polybrene, and exposed to HIV in culture tubes (2,000 virus particles per cell), in the presence or absence of various concentrations of 2',3'-dideoxycytidine (ddC).
as §3

PBM + PHA = experiment: In vitro immune reactivity of PBM stimulated with PHA (3H-uridine incorporation); type: cell-based, human; conditions: 72 hours, control (None) 82 ± 1
Procedure: as §1

[7] = 0.03 mg/kg 3×/day intravenous for 12 days followed by 0.3 mg/kg 3×/day orally
[8] = AIDS patients, following therapy
[9] = patient 1, 0.25 mg/kg every 8 hours IV, 8 days receiving ddC
[10] = patient 1, 0.25 mg/kg every 8 hours IV
[11] = patient 2, 0.03 mg/kg every 8 hours, IV then oral
[12] = patient 3, 0.03 mg/kg every 4 hours IV, 12 days receiving ddC
[13] = patient 3, 0.03 mg/kg every 4 hours IV
[14] = Example 7, concentration (uM) figure not given

Nc1ccn([C@H]2CC[C@@H](CO)O2)c(=O)n1 [ddC, 2',3'-dideoxycytidine]
sensitivity to cytidine deaminase (cytidine deaminase): not sensitive to cytidine deaminase | safety to T cells (T cells): safe and non-lethal to T cells | Tolerated for up to, without significant toxicity in some patients [1, 7]: up to 40 days | minor toxicity in one patient [1, 7]: skin rash and oral ulcers | Tolerated for up to, without significant toxicity ([1]; 0.03 mg/kg 6×/day intravenous for 14 days, followed by 0.03 mg/kg 6×/day orally): up to 18 days | Toxicity ([1]; 0.25 mg/kg 3×/day intravenous): Thrombocytopenia; also recorded: skin rash | platelets, before drop ([1]; 0.25 mg/kg 3×/day intravenous, dropped from): 234,000 /mm^3 | platelets, after drop ([1]; 0.25 mg/kg 3×/day intravenous, dropped to): 68,000 /mm^3 | minor toxicities ([1]; humans): skin rash and aphthous stomatitis | toxic effect in humans ([1]; humans): bone marrow suppression (decreased platelets) | toxicity in some patients with prolonged administration ([1]; some patients, prolonged administration): small fiber peripheral neuropathy | T4/T8 Ratio, End Treatment (T4 cells [2]): 0.47 | T/mm3, End Treatment (T4 cells [2]): 326 /mm3 | harm to cells (normal lymphocytes): not harmed by drug concentrations that exceed the virustatic dose | T4/T8 ratio (change) (T4 cells [3]; [8]): increase | absolute number of T4 cells (T4 cells [3]; [8]): increase | T4/T8 Ratio, End Treatment (T4 cells [3]; [9]): 0.40 | T/mm3, End Treatment (T4 cells [3]; [9]): 530 /mm3 | T4/T8 Ratio, Start Treatment (T4 cells [3]; [10]): 0.20 | T4/mm3, Start Treatment (T4 cells [3]; [10]): 309 /mm3 | T4/T8 Ratio, Start Treatment (T4 cells [3]; [11]): 0.39 | T4/mm3, Start Treatment (T4 cells [3]; [11]): 260 /mm3 | T4/T8 Ratio, End Treatment (T4 cells [3]; [12]): 0.51 | T/mm3, End Treatment (T4 cells [3]; [12]): 307 /mm3 | T4/T8 Ratio, Start Treatment (T4 cells [3]; [13]): 0.26 | T4/mm3, Start Treatment (T4 cells [3]; [13]): 246 /mm3 | Intracellular concentration of ddCDP [4]: 1.20 µM | Intracellular concentration of ddCDPch [4]: 1.10 µM | Intracellular concentration of ddCMP [4]: 2.10 µM | Intracellular concentration of ddCTP [4]: 0.5 µM | Intracellular concentration of ddCyd [4]: 6.40 µM | circulating p24 antigen-level (HIV p24 antigen): falls | mean counts per minute (×10^3) ± 1 standard deviation, 3H-uridine incorporation (Clone TM 3; 1 uM ddC): 13 ± 1 counts per minute (×10^3) | mean counts per minute (×10^3) ± 1 standard deviation, 3H-uridine incorporation (Clone TM 3; 10 uM ddC): 8 ± 1 counts per minute (×10^3) | inhibition of the infectivity of the virus (HIV [5]; 1 uM ddCyd): 100% | inhibition of the replication of the virus (HIV [5]; 1 uM ddCyd): 100% | inhibition of the viral p24 expression (HIV [5]; [14]): virtually complete inhibition | inhibition of the infectivity and replication of HIV (HIV [5]; H9 cells, p24 gag expression, days 8, 9, 10, 3,000 virus particles/cell, FIG. 4-B): almost complete inhibition | mean counts per minute (×10^3) ± 1 standard deviation, 3H-uridine incorporation (PBM + PWM; 1 uM ddC): 23 ± 3 counts per minute (×10^3) | mean counts per minute (×10^3) ± 1 standard deviation, 3H-uridine incorporation (PBM + PWM; 10 uM ddC): 15 ± 3 counts per minute (×10^3) | difference between uninfected and HIV-infected ATH8 cells in ability to phosphorylate ddCYD (HIV-infected ATH8 cells): No significant qualitative or quantitative differences | inhibition of the cytopathic effect of the virus (HIV [6]; 1 uM ddCyd): 100% | inhibition of the cytopathic effect of HIV (HIV [6]; ATH8 cells, day 5, 2,000 virus particles per cell, FIG. 4-A): almost complete inhibition | inhibition of the cytopathic effect of HIV (HIV [6]; [14]): virtually complete inhibition | mean counts per minute (×10^3) ± 1 standard deviation, 3H-uridine incorporation (PBM + PHA; 1 uM ddC): 101 ± 1 counts per minute (×10^3) | mean counts per minute (×10^3) ± 1 standard deviation, 3H-uridine incorporation (PBM + PHA; 10 uM ddC): 86 ± 3 counts per minute (×10^3)

Nc1ccn([C@H]2C[C@H](O)[C@@H](CO)O2)c(=O)n1 [dCYD, reference compound]
phosphorylation of ddCYD (HIV-infected ATH8 cells; dCYD (5 uM) added together with ddCYD): phosphorylation was blocked | reversal of the anti-HIV effect of ddCyd (HIV [6]; dCYD with ddCyd): reverses the anti-HIV effect of ddCyd
